Laboratory results from patent US11420973B2, “Amide substituted indole compounds useful as TLR inhibitors” (BRISTOL-MYERS SQUIBB COMPANY, priority 2017, dated 2022).
Structures can show the parent of a compound that is named as a salt.

Key:
human TLR7 = human TLR7 (Homo sapiens (Human), UniProt Q9NYK1); assay: TLR7 inhibition reporter assay (HEK-Blue SEAP reporter, gardiquimod stimulation); assay type: cell-based; settings: HEK-Blue cells overexpressing human TLR7, gardiquimod 7.5 μM
human TLR8 = human TLR8 (Homo sapiens (Human), UniProt Q9NR97); assay: TLR8 inhibition reporter assay (HEK-Blue SEAP reporter, R848 stimulation); settings: read-out: TLR8 IC50; HEK-Blue cells overexpressing human TLR8, R848 15.9 μM, SEAP reporter;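 further: SEAP driven by IFN-β minimal promoter with NF-κB and AP-1 sites, 22 h incubation, compounds 0.05 nM–50 µM, inhibition scaled between agonist plus DMSO and reference inhibitor wells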
Sequence of human TLR8 (Q9NR97 27-1041): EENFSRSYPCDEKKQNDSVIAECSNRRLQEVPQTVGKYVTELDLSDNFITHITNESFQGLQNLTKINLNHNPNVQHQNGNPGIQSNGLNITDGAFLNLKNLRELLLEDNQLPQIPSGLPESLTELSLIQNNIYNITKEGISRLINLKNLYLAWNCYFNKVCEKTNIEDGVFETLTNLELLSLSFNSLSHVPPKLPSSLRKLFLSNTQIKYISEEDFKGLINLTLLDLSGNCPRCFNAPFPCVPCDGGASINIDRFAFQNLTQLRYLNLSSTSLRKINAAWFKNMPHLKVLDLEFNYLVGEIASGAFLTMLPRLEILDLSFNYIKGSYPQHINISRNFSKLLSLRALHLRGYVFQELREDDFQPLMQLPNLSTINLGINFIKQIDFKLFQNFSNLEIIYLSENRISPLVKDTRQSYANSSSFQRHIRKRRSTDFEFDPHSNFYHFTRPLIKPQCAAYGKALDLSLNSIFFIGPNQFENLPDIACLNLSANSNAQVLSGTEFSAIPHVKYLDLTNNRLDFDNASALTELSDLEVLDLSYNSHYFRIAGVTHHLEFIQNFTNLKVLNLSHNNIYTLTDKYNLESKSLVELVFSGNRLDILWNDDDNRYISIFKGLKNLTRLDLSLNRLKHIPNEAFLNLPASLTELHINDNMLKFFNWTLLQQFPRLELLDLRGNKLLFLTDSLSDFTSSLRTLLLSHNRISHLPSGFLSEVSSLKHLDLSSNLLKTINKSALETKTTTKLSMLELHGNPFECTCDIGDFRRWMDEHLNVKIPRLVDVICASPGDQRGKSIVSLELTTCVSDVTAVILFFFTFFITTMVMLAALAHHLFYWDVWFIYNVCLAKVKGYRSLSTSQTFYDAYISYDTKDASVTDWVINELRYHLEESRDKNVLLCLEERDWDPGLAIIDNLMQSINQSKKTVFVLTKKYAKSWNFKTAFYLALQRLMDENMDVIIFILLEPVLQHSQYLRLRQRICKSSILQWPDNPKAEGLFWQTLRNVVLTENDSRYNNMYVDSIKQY

human TLR9 = human TLR9 (Homo sapiens (Human), UniProt Q9NR96); assay: TLR9 inhibition reporter assay (HEK-Blue SEAP reporter, ODN2006 stimulation); settings: read-out: TLR9 IC50; HEK-Blue cells overexpressing human TLR9, ODN2006 5 nM, SEAP reporter;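 further: SEAP reporter under IFN-β minimal promoter with five NF-κB and AP-1 sites, 22 h incubation, compounds 0.05 nM–50 µM, inhibition relative to agonist plus DMSO versus known inhibitor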
Sequence of human TLR9 (Q9NR96 26-1032): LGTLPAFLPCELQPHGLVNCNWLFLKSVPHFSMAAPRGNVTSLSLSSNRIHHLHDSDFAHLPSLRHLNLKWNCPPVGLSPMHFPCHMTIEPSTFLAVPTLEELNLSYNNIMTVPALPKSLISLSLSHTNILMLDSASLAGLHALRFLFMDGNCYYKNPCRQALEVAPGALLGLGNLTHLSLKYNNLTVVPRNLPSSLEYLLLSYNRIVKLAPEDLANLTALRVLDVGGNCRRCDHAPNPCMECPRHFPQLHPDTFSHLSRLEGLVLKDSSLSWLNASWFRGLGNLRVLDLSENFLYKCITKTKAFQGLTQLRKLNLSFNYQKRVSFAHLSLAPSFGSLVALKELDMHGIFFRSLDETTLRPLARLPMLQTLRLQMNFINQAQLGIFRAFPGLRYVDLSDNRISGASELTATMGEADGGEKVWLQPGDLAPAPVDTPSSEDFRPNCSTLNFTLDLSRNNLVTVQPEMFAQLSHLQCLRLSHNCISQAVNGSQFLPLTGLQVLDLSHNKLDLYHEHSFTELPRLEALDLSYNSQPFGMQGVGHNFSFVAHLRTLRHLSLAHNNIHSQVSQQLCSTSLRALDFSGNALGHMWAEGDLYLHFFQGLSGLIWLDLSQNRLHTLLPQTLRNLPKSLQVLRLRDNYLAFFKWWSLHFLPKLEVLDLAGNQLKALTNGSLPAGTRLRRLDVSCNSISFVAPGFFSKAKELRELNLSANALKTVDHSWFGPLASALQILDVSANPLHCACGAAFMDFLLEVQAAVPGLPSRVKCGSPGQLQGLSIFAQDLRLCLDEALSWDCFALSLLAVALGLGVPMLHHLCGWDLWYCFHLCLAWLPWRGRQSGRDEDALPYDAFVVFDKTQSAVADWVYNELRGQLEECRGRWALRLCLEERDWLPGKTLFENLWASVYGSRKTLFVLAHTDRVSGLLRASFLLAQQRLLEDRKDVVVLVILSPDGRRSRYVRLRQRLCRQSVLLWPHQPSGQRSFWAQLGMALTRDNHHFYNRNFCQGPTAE
Procedure: HEK-Blue™-cells (Invivogen) overexpressing human TLR7, TLR8 or TLR9 receptors were used for screening inhibitors of these receptors using an inducible SEAP (secreted embryonic alkaline phosphatase) reporter gene under the control of the IFN-β minimal promoter fused to five NF-κB and AP-1-binding sites. Briefly, cells are seeded into Greiner 384 well plates (15000 cells per well for TLR7, 20,000 for TLR8 and 25,000 for TLR9) and then treated with test compounds in DMSO to yield a final dose response concentration range of 0.05 nM-50 μM. After a 30 minute compound pre-treatment at room temperature, the cells are then stimulated with a TLR7 ligand (gardiquimod at a final concentration of 7.5 μM), TLR8 ligand (R848 at a final concentration of 15.9 μM) or TLR9 ligand (ODN2006 at a final concentration of 5 nM) to activate NF-κB and AP-1 which induce the production of SEAP. After a 22 hour incubation at 37° C., 5% CO2, SEAP levels are determined with the addition of HEK-Blue™ Detection reagent (Invivogen), a cell culture medium that allows for detection of SEAP, according to manufacturer's specifications.

Sequence of human TLR7 (Q9NYK1 27-1049): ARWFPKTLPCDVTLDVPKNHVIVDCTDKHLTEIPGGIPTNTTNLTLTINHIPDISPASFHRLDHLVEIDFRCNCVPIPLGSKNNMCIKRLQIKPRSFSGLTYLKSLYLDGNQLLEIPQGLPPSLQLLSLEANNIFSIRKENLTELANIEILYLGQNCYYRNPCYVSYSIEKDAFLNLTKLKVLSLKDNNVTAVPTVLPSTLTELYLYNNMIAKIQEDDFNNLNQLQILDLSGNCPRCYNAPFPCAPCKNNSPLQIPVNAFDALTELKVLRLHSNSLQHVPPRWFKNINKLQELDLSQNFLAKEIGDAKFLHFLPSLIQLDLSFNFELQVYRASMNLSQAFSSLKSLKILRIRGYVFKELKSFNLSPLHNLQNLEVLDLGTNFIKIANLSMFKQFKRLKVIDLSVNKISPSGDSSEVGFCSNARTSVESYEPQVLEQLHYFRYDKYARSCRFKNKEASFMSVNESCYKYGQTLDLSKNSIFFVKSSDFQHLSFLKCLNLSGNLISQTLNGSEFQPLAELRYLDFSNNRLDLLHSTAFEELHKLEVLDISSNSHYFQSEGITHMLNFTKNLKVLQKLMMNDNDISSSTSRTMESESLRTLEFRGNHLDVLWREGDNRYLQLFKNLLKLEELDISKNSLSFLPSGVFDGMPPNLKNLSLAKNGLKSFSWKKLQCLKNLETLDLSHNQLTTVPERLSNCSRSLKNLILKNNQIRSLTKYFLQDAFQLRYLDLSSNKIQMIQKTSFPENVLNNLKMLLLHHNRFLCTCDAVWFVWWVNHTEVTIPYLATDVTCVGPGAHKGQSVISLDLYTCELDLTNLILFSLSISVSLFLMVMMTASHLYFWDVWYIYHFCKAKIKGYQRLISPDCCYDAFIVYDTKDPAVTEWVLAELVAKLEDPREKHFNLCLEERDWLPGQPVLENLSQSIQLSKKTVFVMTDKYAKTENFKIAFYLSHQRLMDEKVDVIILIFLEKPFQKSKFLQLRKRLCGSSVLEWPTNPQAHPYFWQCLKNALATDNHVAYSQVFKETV

Compound	IC50 (human TLR7) [nM]	IC50 (human TLR8) [nM]	IC50 (human TLR9) [nM]
Cc1cc(-c2[nH]c3ccc(C(=O)N4CC5CN(C(=O)CN(C)C)CC5C4)cc3c2C(C)C)ccn1 (stereo not drawn) [Example 120, 2-(dimethylamino)-1-(5-(3-isopropyl-2-(2-methylpyridin-4-yl)-1H-indole-5-carbonyl)hexahydropyrrolo[3,4-c]pyrrol-2(1H)-yl)ethan-1-one]	870	47	752
CC(C)c1c(-c2ccnc3[nH]ncc23)[nH]c2ccc(C(=O)N3CC4CNCC4C3)cc12 (stereo not drawn) [Example 121, (hexahydropyrrolo[3,4-c]pyrrol-2(1H)-yl)(3-isopropyl-2-(1H-pyrazolo[3,4-b]pyridin-4-yl)-1H-indol-5-yl)methanone, HCl]	1600	122	3330
Cc1cc(-c2[nH]c3ccc(C(=O)N4CC5CNCC5C4)cc3c2CC(F)F)cc(C)n1 (stereo not drawn) [Example 122, (3-(2,2-difluoroethyl)-2-(2,6-dimethylpyridin-4-yl)-1H-indol-5-yl)(hexahydropyrrolo [3,4-c]pyrrol-2(1H)-yl)methanone]	2260	5650	1460
Cc1cc(-c2[nH]c3ccc(C(=O)NC4CCN(C(C)C)CC4)cc3c2CC(F)F)cc(C)n1 [Example 123, 3-(2,2-difluoroethyl)-2-(2,6-dimethylpyridin-4-yl)-N-(1-isopropylpiperidin-4-yl)-1H-indole-5-carboxamide]	83	75	231
Cc1cc(-c2[nH]c3ccc(C(=O)N4CCCN(C)CC4)cc3c2CC(F)F)cc(C)n1 [Example 124, (3-(2,2-difluoroethyl)-2-(2,6-dimethylpyridin-4-yl)-1H-indol-5-yl)(4-methyl-1,4-diazepan-1-yl)methanone]	128	36	1120
CCN(CCN(C)C)C(=O)c1ccc2[nH]c(-c3cc(C)nc(C)c3)c(CC(F)F)c2c1 [Example 125, 3-(2,2-difluoroethyl)-N-(2-(dimethylamino)ethyl)-2-(2,6-dimethylpyridin-4-yl)-N-ethyl-1H-indole-5-carboxamide]	19	23	727
COc1cc(-c2[nH]c3ccc(C(=O)N4CC5CNCC5C4)cc3c2C(C)C)cn2ncnc12 (stereo not drawn) [Example 126, (hexahydropyrrolo[3,4-c]pyrrol-2(1H)-yl)(3-isopropyl-2-(8-methoxy-[1,2,4]triazolo[1,5-a]pyridin-6-yl)-1H-indol-5-yl)methanone]	29	233	2410
COc1cc(-c2[nH]c3ccc(C(=O)NC4CCN(C(C)C)CC4)cc3c2C(C)C)cn2ncnc12 [Example 127, 3-isopropyl-N-(1-isopropylpiperidin-4-yl)-2-(8-methoxy-[1,2,4]triazolo[1,5-a]pyridin-6-yl)-1H-indole-5-carboxamide]	2.5	1.7	916
COc1cc(-c2[nH]c3ccc(C(=O)N4CCCN(C)CC4)cc3c2C(C)C)cn2ncnc12 [Example 128, (3-isopropyl-2-(8-methoxy-[1,2,4]triazolo[1,5-a]pyridin-6-yl)-1H-indol-5-yl)(4-methyl-1,4-diazepan-1-yl)methanone]	3.8	2.6	1400
COc1cc(-c2[nH]c3ccc(C(=O)N(C)CCN(C)C)cc3c2C(C)C)cn2ncnc12 [Example 129, N-(2-(dimethylamino)ethyl)-3-isopropyl-2-(8-methoxy-[1,2,4]triazolo[1,5-a]pyridin-6-yl)-N-methyl-1H-indole-5-carboxamide]	1.8	2.3	3350
Cc1cc(-c2[nH]c3ccc(C(C)C(=O)NC[C@@H](F)C(C)(C)O)cc3c2C(C)C)ccn1 (stereo partly drawn) [Example 130, N—((R)-2-fluoro-3-hydroxy-3-methylbutyl)-2-(3-isopropyl-2-(2-methylpyridin-4-yl)-1H-indol-5-yl)propanamide]	748	818	> 50000
Cc1cc(-c2[nH]c3ccc(C(C)C(=O)NCC(C)(C)O)cc3c2C(C)C)ccn1 (stereo not drawn) [Example 131, N-(2-hydroxy-2-methylpropyl)-2-(3-isopropyl-2-(2-methylpyridin-4-yl)-1H-indol-5-yl)propanamide]	657	979	> 50000
Cc1cc(-c2[nH]c3ccc(C(C)(C)C(=O)NC[C@@H](F)C(C)(C)O)cc3c2C(C)C)ccn1 [Example 133, (R)—N-(2-fluoro-3-hydroxy-3-methylbutyl)-2-(3-isopropyl-2-(2-methylpyridin-4-yl)-1H-indol-5-yl)-2-methylpropanamide]	284	399	> 50000
Cc1cc(-c2[nH]c3ccc(C(C)(C)C(=O)NCCN)cc3c2C(C)C)ccn1 [Example 134, N-(2-aminoethyl)-2-(3-isopropyl-2-(2-methylpyridin-4-yl)-1H-indol-5-yl)-2-methylpropanamide]	63	110	1090
Cc1cc(-c2[nH]c3ccc(C(C)(C)C(=O)NCCC(C)(C)O)cc3c2C(C)C)ccn1 [Example 135, N-(3-hydroxy-3-methylbutyl)-2-(3-isopropyl-2-(2-methylpyridin-4-yl)-1H-indol-5-yl)-2-methylpropanamide]	202	551	> 50000
CC(C)c1c(-c2ccnc3[nH]ncc23)[nH]c2ccc(CCC(=O)N3CCOCC3)cc12 [Example 136, 3-(3-isopropyl-2-(1H-pyrazolo[3,4-b]pyridin-4-yl)-1H-indol-5-yl)-1-morpholinopropan-1-one]	1760	411	> 50000
COc1ccc(-c2[nH]c3ccc(CCC(=O)N4CC5CNCC5C4)cc3c2C(C)C)cc1OC (stereo not drawn) [Example 137, 3-(2-(3,4-dimethoxyphenyl)-3-isopropyl-1H-indol-5-yl)-1-(hexahydropyrrolo[3,4-c]pyrrol-2(1H)-yl)propan-1-one]	109	32	840
Cc1cc(-c2[nH]c3ccc(C(C)(C)C(=O)N[C@H]4CCNC4)cc3c2C(C)C)ccn1 [Example 138, (S)-2-(3-isopropyl-2-(2-methylpyridin-4-yl)-1H-indol-5-yl)-2-methyl-N-(pyrrolidin-3-yl)propanamide]	52	64	1170
Cc1cc(-c2[nH]c3ccc(C(C)(C)C(=O)NC4CCN(C(C)C)CC4)cc3c2C(C)C)ccn1 [Example 139, 2-(3-isopropyl-2-(2-methylpyridin-4-yl)-1H-indol-5-yl)-N-(1-isopropylpiperidin-4-yl)-2-methylpropanamide]	25	154	1140
Cc1cc(-c2[nH]c3ccc(C(C)(C)C(=O)N[C@@H]4CCCNC4)cc3c2C(C)C)ccn1 [Example 140, (R)-2-(3-isopropyl-2-(2-methylpyridin-4-yl)-1H-indol-5-yl)-2-methyl-N-(piperidin-3-yl)propanamide]	40	32	1220
Cc1cc(-c2[nH]c3ccc(C(C)(C)C(=O)N[C@@H]4CCNC4)cc3c2C(C)C)ccn1 [Example 141, (R)-2-(3-isopropyl-2-(2-methylpyridin-4-yl)-1H-indol-5-yl)-2-methyl-N-(pyrrolidin-3-yl)propanamide]	58	68	895
Cc1cc(-c2[nH]c3ccc(C(C)(C)C(=O)NC4CN5CCC4CC5)cc3c2C(C)C)ccn1 (stereo not drawn) [Example 142, 2-(3-isopropyl-2-(2-methylpyridin-4-yl)-1H-indol-5-yl)-2-methyl-N-(quinuclidin-3-yl)propanamide]	16	120	790
Cc1cc(-c2[nH]c3ccc(C(C)(C)C(=O)NC4CCNCC4)cc3c2C(C)C)ccn1 [Example 143, 2-(3-isopropyl-2-(2-methylpyridin-4-yl)-1H-indol-5-yl)-2-methyl-N-(piperidin-4-yl)propanamide]	35	147	562
Cc1cc(-c2[nH]c3ccc(C(C)(C)C(=O)NC4CCC5CNCC54)cc3c2C(C)C)ccn1 (stereo not drawn) [Example 144, 2-(3-isopropyl-2-(2-methylpyridin-4-yl)-1H-indol-5-yl)-2-methyl-N-(octahydrocyclopenta[c]pyrrol-4-yl)propanamide]	26	64	677
Cc1cc(-c2[nH]c3ccc(C(C)(C)C(=O)NC4CCN(C5CCNC5)CC4)cc3c2C(C)C)ccn1 (stereo not drawn) [Example 145, 2-(3-isopropyl-2-(2-methylpyridin-4-yl)-1H-indol-5-yl)-2-methyl-N-(1-(pyrrolidin-3-yl)piperidin-4-yl)propanamide]	554	783	4500
Cc1cc(-c2[nH]c3ccc(C(C)(C)C(=O)NC4CCC5CNCC54)cc3c2C(C)C)ccn1 (stereo not drawn) [Example 146, 2-(3-isopropyl-2-(2-methylpyridin-4-yl)-1H-indol-5-yl)-2-methyl-N-(octahydrocyclopenta[c]pyrrol-4-yl)propanamide]	160	122	979
Cc1cc(-c2[nH]c3ccc(C(C)(C)C(=O)NC4CCC5CNCC54)cc3c2C(C)C)ccn1 (stereo not drawn) [Example 147, 2-(3-isopropyl-2-(2-methylpyridin-4-yl)-1H-indol-5-yl)-2-methyl-N-(octahydrocyclopenta[c]pyrrol-4-yl)propanamide]	109	92	1210
Cc1cc(-c2[nH]c3ccc(C(C)(C)C(=O)N4CC5CC(C4)C5N)cc3c2C(C)C)ccn1 (stereo not drawn) [Example 148, 1-(6-amino-3-azabicyclo[3.1.1]heptan-3-yl)-2-(3-isopropyl-2-(2-methylpyridin-4-yl)-1H-indol-5-yl)-2-methylpropan-1-one]	88	79	2640
